Type in all cases: biochemical
In one assay the target is JAK1-JH1JH2 (Homo sapiens (Human), UniProt P23458). In words: Enzymatic inhibition assay (RapidFire HTMS), JAK1. Conditions: 12.5 μM ATP, 200 μM substrate; read-out: JAK1-JH2JH1 IC50. The method, boiled down: (§1)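 Quenched with 0.5% TFA plus internal-standard peptide; phosphorylated product quantified by RapidFire C4 SPE–ESI-MS, 11-point 1:3 or 1:4 dilutions in duplicate.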

The target of the next assay is JAK2-JH1JH2 (Homo sapiens (Human), UniProt O60674). In words: Enzymatic inhibition assay (RapidFire HTMS), JAK2. The settings on record: 30 μM ATP, 40 μM substrate. Summed up:
as §1

The next assay addresses JAK3-JH1JH2 (Homo sapiens (Human), UniProt P52333). In words: Enzymatic inhibition assay (RapidFire HTMS), JAK3. The settings on record: 150 μM ATP, 40 μM substrate. The method, boiled down: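 Compounds tested in duplicate over 11-point 1:3 or 1:4 dilution series; no-enzyme wells as negative control. After 45 min at 25 °C, TFA quench with internal standard, and phosphorylated product quantified by RapidFire–QTrap mass spectrometry relative to the uninhibited reaction.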

The next assay concerns the target Tyk2-JH1JH2 (Homo sapiens (Human), UniProt P29597, C1142A/C936A). In words: Enzymatic inhibition assay (RapidFire HTMS), Tyk2. Conditions: 50 μM ATP, 200 μM substrate. The method, boiled down:
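Compounds were tested in duplicate as 11-point 1:3 or 1:4 DMSO dilutions (≤0.25% DMSO final) in 20 μL reactions at 25 °C for 90 min, with Tyk2 pre-incubated 30 min with 2 mM ATP. Reactions were quenched with TFA plus internal standard peptide, and phosphorylated product was quantified by RapidFire C4 SPE–ESI MS.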

Our source for the IC50 values is patent publication US10981911B2, “Imidazopyrrolopyridine as inhibitors of the JAK family of kinases” (Janssen Pharmaceutica NV, priority 2016, dated 2021).

The structures appear in SMILES notation.

Sequence of JAK2-JH1JH2 (O60674 532-1132): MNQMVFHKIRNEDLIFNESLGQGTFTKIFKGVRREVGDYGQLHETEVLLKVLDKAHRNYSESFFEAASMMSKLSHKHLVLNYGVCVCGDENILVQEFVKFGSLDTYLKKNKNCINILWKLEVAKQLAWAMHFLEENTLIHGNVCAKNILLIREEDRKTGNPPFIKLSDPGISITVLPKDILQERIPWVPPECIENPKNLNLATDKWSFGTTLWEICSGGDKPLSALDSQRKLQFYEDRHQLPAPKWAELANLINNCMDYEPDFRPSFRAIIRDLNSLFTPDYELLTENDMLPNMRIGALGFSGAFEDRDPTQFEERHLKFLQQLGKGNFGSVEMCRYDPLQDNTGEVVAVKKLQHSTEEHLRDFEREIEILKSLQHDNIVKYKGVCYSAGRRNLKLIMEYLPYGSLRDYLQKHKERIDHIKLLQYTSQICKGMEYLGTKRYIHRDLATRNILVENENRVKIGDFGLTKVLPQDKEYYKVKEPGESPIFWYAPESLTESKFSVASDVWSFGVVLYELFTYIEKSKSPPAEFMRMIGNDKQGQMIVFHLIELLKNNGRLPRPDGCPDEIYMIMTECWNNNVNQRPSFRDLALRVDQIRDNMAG
Sequence of JAK1-JH1JH2 (P23458 574-1154): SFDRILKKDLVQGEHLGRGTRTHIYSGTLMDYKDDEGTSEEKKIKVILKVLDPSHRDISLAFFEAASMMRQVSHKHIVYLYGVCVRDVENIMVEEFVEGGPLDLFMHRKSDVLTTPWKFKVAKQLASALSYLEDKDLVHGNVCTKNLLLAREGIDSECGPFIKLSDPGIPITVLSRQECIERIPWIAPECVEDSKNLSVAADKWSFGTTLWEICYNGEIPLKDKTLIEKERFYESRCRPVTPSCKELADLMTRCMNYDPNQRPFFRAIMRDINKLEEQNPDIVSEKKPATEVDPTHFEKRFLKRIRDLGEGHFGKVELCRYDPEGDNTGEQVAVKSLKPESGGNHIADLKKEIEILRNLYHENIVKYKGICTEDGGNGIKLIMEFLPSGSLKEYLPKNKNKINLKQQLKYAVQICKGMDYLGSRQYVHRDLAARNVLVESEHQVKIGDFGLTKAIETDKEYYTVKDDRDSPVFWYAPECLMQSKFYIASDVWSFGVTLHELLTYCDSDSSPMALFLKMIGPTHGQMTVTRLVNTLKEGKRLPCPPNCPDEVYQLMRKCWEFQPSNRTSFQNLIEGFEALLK
Sequence of JAK3-JH1JH2 (P52333 512-1124): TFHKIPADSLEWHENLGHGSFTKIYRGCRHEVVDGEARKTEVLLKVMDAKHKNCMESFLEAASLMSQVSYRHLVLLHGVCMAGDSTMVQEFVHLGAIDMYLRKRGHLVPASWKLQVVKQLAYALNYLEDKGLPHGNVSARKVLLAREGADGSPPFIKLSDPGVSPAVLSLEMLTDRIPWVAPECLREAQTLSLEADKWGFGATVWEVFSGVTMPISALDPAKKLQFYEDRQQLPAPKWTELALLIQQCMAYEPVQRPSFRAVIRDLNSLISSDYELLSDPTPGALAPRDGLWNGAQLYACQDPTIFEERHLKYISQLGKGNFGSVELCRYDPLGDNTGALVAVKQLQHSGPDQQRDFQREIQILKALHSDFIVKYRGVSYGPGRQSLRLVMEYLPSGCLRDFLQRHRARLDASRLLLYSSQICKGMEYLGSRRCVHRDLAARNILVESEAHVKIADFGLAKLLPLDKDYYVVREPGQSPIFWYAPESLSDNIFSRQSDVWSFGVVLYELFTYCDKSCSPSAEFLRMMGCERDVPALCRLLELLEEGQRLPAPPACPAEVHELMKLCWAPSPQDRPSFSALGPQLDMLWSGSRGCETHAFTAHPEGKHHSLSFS
Sequence of Tyk2-JH1JH2 (P29597 580-1182 C936A/C1142A): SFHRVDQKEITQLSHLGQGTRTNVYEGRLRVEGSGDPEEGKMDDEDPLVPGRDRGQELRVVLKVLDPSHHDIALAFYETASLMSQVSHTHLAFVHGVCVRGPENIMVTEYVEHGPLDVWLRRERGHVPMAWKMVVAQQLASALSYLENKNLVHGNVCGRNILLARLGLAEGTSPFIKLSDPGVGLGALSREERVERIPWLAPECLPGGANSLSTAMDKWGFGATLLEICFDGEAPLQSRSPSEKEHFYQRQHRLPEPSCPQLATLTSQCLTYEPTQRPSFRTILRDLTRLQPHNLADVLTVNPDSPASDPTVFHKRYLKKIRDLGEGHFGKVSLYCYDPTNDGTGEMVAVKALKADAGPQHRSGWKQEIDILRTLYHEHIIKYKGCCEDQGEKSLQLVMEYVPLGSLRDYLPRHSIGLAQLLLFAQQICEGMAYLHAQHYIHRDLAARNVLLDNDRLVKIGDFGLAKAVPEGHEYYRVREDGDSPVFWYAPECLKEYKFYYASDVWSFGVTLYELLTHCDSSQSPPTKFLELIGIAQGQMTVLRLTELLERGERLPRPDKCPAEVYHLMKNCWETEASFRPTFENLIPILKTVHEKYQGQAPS

As to `N#CC[C@H]1CC[C@H](n2c(CC(=O)NC34CCC(CO)(CC3)C4)nc3cnc4[nH]ccc4c32)CC1` [Ex. 131, 2-(1-((1r,4r)-4-(Cyanomethyl)cyclohexyl)-1,6-dihydroimidazo[4,5-d]pyrrolo[2,3-b]pyridin-2-yl)-N-(4-(hydroxymethyl)bicyclo[2.2.1]heptan-1-yl)acetamide], the half-inhibitory concentration (IC50) at JAK1-JH1JH2 came out at 0.8 nM; on JAK2-JH1JH2, 5.6 nM; against JAK3-JH1JH2, 100 nM; against Tyk2-JH1JH2, 10.5 nM.
For `CC(C)(O)CNC(=O)Cc1nc2cnc3[nH]cc(F)c3c2n1[C@H]1CC[C@H](CC#N)CC1` [Ex. 132, 2-(1-((1r,4r)-4-(Cyanomethyl)cyclohexyl)-8-fluoro-1,6-dihydroimidazo[4,5-d]pyrrolo[2,3-b]pyridin-2-yl)-N-(2-hydroxy-2-methylpropyl)acetamide] the same measures were 0.8 nM, 13.8 nM, 61.7 nM and 16.1 nM.
With `CNC(=O)c1nc2cnc3[nH]ccc3c2n1[C@H]1CC[C@H](CC#N)CC1` [Ex. 133, 1-((1r,4r)-4-(Cyanomethyl)cyclohexyl)-N-methyl-1,6-dihydroimidazo[4,5-d]pyrrolo[2,3-b]pyridine-2-carboxamide], the concentration for half-maximal inhibition (IC50) at JAK1-JH1JH2 was found to be 0.8 nM; against JAK2-JH1JH2, 9.4 nM; at JAK3-JH1JH2 it was 154 nM; against Tyk2-JH1JH2 it was 19.8 nM.
On the same counts, the results for `CS(=O)(=O)N1CC(c2nc3cnc4[nH]ccc4c3n2[C@H]2CC[C@H](CC#N)CC2)C1` [Ex. 134, 2-((1r,4r)-4-(2-(1-(Methylsulfonyl)azetidin-3-yl)imidazo[4,5-d]pyrrolo[2,3-b]pyridin-1(6H)-yl)cyclohexyl)acetonitrile] are 0.8 nM, 118 nM, 1290 nM and 91.2 nM.
For the molecule `CC(C)COC(=O)NCc1nc2cnc3[nH]ccc3c2n1[C@H]1CC[C@H](CC#N)CC1` [Ex. 137, Isobutyl ((1-((1r,4r)-4-(Cyanomethyl)cyclohexyl)-1,6-dihydroimidazo[4,5-d]pyrrolo[2,3-b]pyridin-2-yl)methyl)carbamate], the half-maximal inhibitory concentration (IC50) on JAK1-JH1JH2 is 0.9 nM; against JAK2-JH1JH2 it was 25.1 nM; against JAK3-JH1JH2, 280 nM; at Tyk2-JH1JH2, 14.2 nM.
On the same counts, the results for `N#CCCNC(=O)c1nc2cnc3[nH]ccc3c2n1[C@H]1CC[C@H](CC#N)CC1` [Ex. 138, N-(2-Cyanoethyl)-1-((1r,4r)-4-(cyanomethyl)cyclohexyl)-1,6-dihydroimidazo[4,5-d]pyrrolo[2,3-b]pyridine-2-carboxamide] are 0.9 nM, 18.9 nM, 195 nM and 18.7 nM.
Regarding `N#CC[C@H]1CC[C@H](n2c(CNC(=O)C3CCCCC3)nc3cnc4[nH]ccc4c32)CC1` [Ex. 139, N-((1-((1r,4r)-4-(Cyanomethyl)cyclohexyl)-1,6-dihydroimidazo[4,5-d]pyrrolo[2,3-b]pyridin-2-yl)methyl)cyclohexanecarboxamide], the half-inhibitory concentration (IC50) was found to be 0.9 nM on JAK1-JH1JH2, 66.9 nM against JAK2-JH1JH2, 746 nM at JAK3-JH1JH2 and 53.5 nM against Tyk2-JH1JH2.
Regarding `N#CC[C@H]1CC[C@H](n2c(C3NC(C4CC4)=NO3)nc3cnc4[nH]ccc4c32)CC1` (stereo partly shown) [Ex. 140, 2-((1r,4r)-4-(2-(3-Cyclopropyl-4,5-dihydro-1,2,4-oxadiazol-5-yl)imidazo[4,5-d]pyrrolo[2,3-b]pyridin-1(6H)-yl)cyclohexyl)acetonitrile], the IC50 on JAK1-JH1JH2 worked out at 0.9 nM; against JAK2-JH1JH2, 4.5 nM; on JAK3-JH1JH2, 56.8 nM; against Tyk2-JH1JH2, 14.9 nM.
Take `N#CC[C@H]1CC[C@H](n2c(CNS(=O)(=O)C3CCCCC3)nc3cnc4[nH]ccc4c32)CC1` [Ex. 141, N-((1-((1r,4r)-4-(Cyanomethyl)cyclohexyl)-1,6-dihydroimidazo[4,5-d]pyrrolo[2,3-b]pyridin-2-yl)methyl)cyclohexanesulfonamide]: the 50% inhibitory concentration (IC50) at JAK1-JH1JH2 worked out at 0.9 nM; at JAK2-JH1JH2, 95.8 nM; at JAK3-JH1JH2, 4070 nM; at Tyk2-JH1JH2 it was 66.7 nM.
Take `CS(C)(=O)=NCc1nc2cnc3[nH]ccc3c2n1[C@H]1CC[C@H](CC#N)CC1` [Ex. 142, 2-((1r,4r)-4-(2-(((Dimethyl(oxo)-λ^6-sulfanylidene)amino)methyl)imidazo[4,5-d]pyrrolo[2,3-b]pyridin-1(6H)-yl)cyclohexyl)acetonitrile]: the half-maximal inhibitory concentration (IC50) at JAK1-JH1JH2 came to 0.9 nM; on JAK2-JH1JH2, 10 nM; at JAK3-JH1JH2, 383 nM; against Tyk2-JH1JH2, 6.9 nM.
With `N#CC[C@H]1CC[C@H](n2c(-c3ccc(S(F)(F)(F)(F)F)cc3)nc3cnc4[nH]ccc4c32)CC1` [Ex. 143, 2-((1r,4r)-4-(2-(4-(Pentafluoro-λ^6-sulfanyl)phenyl)imidazo[4,5-d]pyrrolo[2,3-b]pyridin-1(6H)-yl)cyclohexyl)acetonitrile], the concentration for half-maximal inhibition (IC50) on JAK1-JH1JH2 came to 0.9 nM; on JAK2-JH1JH2 it was 38.5 nM; on JAK3-JH1JH2 it was 1270 nM; against Tyk2-JH1JH2 it was 117 nM.
On the same counts, the results for `N#CC[C@H]1CC[C@H](n2c(CNC(=O)c3cn[nH]c3)nc3cnc4[nH]ccc4c32)CC1` [Ex. 144, N-((1-((1r,4r)-4-(Cyanomethyl)cyclohexyl)-1,6-dihydroimidazo[4,5-d]pyrrolo[2,3-b]pyridin-2-yl)methyl)-1H-pyrazole-4-carboxamide] are 1 nM, 43.1 nM, 376 nM and 16.2 nM.
For `N#CC[C@H]1CC[C@H](n2c(COC(=O)NCC3CCCCC3)nc3cnc4[nH]ccc4c32)CC1` [Ex. 146, (1-((1r,4r)-4-(Cyanomethyl)cyclohexyl)-1,6-dihydroimidazo[4,5-d]pyrrolo[2,3-b]pyridin-2-yl)methyl (cyclohexylmethyl)carbamate] the same measures were 1.1 nM, 18 nM, 319 nM and 11.3 nM.
Consider `CC(=O)N1CC(c2nc3cnc4[nH]ccc4c3n2[C@H]2CC[C@H](CC#N)CC2)C1` [Ex. 147, 2-((1r,4r)-4-(2-(1-Acetylazetidin-3-yl)imidazo[4,5-d]pyrrolo[2,3-b]pyridin-1(6H)-yl)cyclohexyl)acetonitrile], for which the half-inhibitory concentration (IC50) on JAK1-JH1JH2 was found to be 1.1 nM; against JAK2-JH1JH2, 315 nM; on JAK3-JH1JH2, 1970 nM; against Tyk2-JH1JH2, 87.9 nM.
On the same counts, the results for `N#CC[C@H]1CC[C@H](n2c(CNC(=O)c3ccccc3)nc3cnc4[nH]ccc4c32)CC1` [Ex. 148, N-((1-((1r,4r)-4-(Cyanomethyl)cyclohexyl)-1,6-dihydroimidazo[4,5-d]pyrrolo[2,3-b]pyridin-2-yl)methyl)benzamide] are 1.1 nM, 50.4 nM, 767 nM and 36.2 nM.
Turning to `N#CC[C@H]1CC[C@H](n2c(CC(=O)N3CCC[C@@H]3CO)nc3cnc4[nH]ccc4c32)CC1` [Ex. 149, 2-((1r,4r)-4-(2-(2-((R)-2-(Hydroxymethyl)pyrrolidin-1-yl)-2-oxoethyl)imidazo[4,5-d]pyrrolo[2,3-b]pyridin-1(6H)-yl)cyclohexyl)acetonitrile], the IC50 is 1.1 nM on JAK1-JH1JH2, 54.4 nM against JAK2-JH1JH2, 926 nM at JAK3-JH1JH2 and 13.9 nM against Tyk2-JH1JH2.
